The target of assay [1] is T1, catalytic domain (JH1, amino acids 808-1132) of human JAK2 (Homo sapiens, UniProt O60674).
T1 construct: catalytic domain (JH1, amino acids 808-1132) of human JAK2; His (N); purchased BPS Bioscience 40450; host or cells: baculovirus expression system
Kind of assay: JAK2 HTRF Enzyme Activity Assay. Type of assay: biochemical. The settings on record: ATP (30 μM or 1 mM; not stated which for the table), 60 minutes at 25° C.; read-out: JAK2 HTRF (Ex. D). As for the experimental part: Example D. JAK2 HTRF Enzyme Activity Assay
JAK2 enzyme activity assays utilize catalytic domain (JH1, amino acids 808-1132) of human JAK2 expressed as N-terminal His-tagged protein in a baculovirus expression system (BPS Bioscience, Catalog #40450). The assays was conducted in black 384-well polystyrene plates in a final reaction volume of 20 μL. JAK2 (0.015 nM) was incubated with compounds (100 nL serially diluted in DMSO) in the presence of ATP (30 μM or 1 mM) and 500 nM Biotin-labeled EQEDEPEGDYFEWLE (SEQ ID NO.: 1) peptide (BioSource International, custom synthesis) in assay buffer (50 mM Tris, pH=7.5, 10 mM MgCl2, 0.01% Brij-35, 0.1% BSA, 1 mM EGTA, 5% Glycerol and 5 mM DTT) for 60 minutes at 25° C. The reactions were stopped by the addition of 10 μL of detection buffer (50 mM Tris, pH 7.8, 0.5 mg/mL BSA, 150 mM NaCl), supplemented with EDTA, LANCE Eu-W1024 anti-phosphotyrosine (PY20), (PerkinElmer, Catalog #AD0067) and Streptavidin SureLight APC (PerkinElmer Catalog #CR130-100), for a final concentration of 15 mM, 1.5 nM and 75 nM, respectively. HTRF signals were read after 30 minutes incubation at room temperature on a PHERAstar FS plate reader (BMG LABTECH). Data was analyzed with TDBS Xlfit and GraphPad Prism 5.0 software using a four parameter dose response curve to determine IC50 for each compound.
(TR-FRET usually uses a lanthanide donor and a delayed reading to cut background.)

For assay [2], the target named is T2, catalytic domain (JH1, amino acids 826-1132) of human JAK2 (Homo sapiens, UniProt O60674).
T2 construct: catalytic domain (JH1, amino acids 826-1132) of human JAK2; FLAG (N); purchased Carna Biosciences 08-445-20N; host or cells: baculovirus expression system
Kind of assay: JAK2 LanthaScreen JH1 Binding Assay. The settings on record: 50 nM fluorescent JAK2-JH1 tracer, 2 hours at 25° C.; read-out: JH1 BIND (EX. A). As for the experimental part:
Example A. JAK2 LanthaScreen JH1 Binding Assay
JAK2 JH1 binding assay utilizes catalytic domain (JH1, amino acids 826-1132) of human JAK2 expressed as N-terminal FLAG-tagged, biotinylated protein in a baculovirus expression system (Carna Biosciences, Product #08-445-20N). The assay was conducted in black 384-well polystyrene plates in a final reaction volume of 20 μL. JAK2 JH1 (1.5 nM) was incubated with compounds (100 nL serially diluted in DMSO) in the presence of 50 nM fluorescent JAK2-JH1 tracer and 0.5 nM Streptavidin-Tb cryptate (Cisbio Part #610SATLB) in assay buffer (50 mM Tris, pH=7.5, 10 mM MgCl2, 0.01% Brij-35, 0.1% BSA, 1 mM EGTA, 5% Glycerol and 5 mM DTT). Non-specific binding was accessed in the presence of 2 mM ATP. After incubation for 2 hours at 25° C., LanthaScreen signals were read on a PHERAstar FS plate reader (BMG LABTECH). Data was analyzed with IDBS Xlfit and GraphPad Prism 5.0 software using a four parameter dose response curve to determine IC50 for each compound.

Assay [3] deals with T3, pseudo-kinase domain (JH2, amino-acids 536-812) of human V617F mutant JAK2 (Homo sapiens, UniProt O60674, F794H/V617F/W659A/W777A).
T3 construct: JH2, amino-acids 536-812 with 3 surface mutations W659A, W777A, F794H; His (C); purchased BPS Bioscience 79498; host or cells: baculovirus expression system
In words: JAK2 LanthaScreen JH2-V617F Binding Assay. The settings on record: 50 nM Fluorescent JAK2-JH2 Tracer, 1 hour at 25° C.; read-out: JH2 BIND V617F (Ex. C). As for the experimental part: Example C. JAK2 LanthaScreen JH2-V617F Binding Assay
(§1) JAK2 JH2-V617F binding assay utilizes pseudo-kinase domain (JH2, amino-acids 536-812 with 3 surface mutations W659A, W777A, F794H) of human V617F mutant JAK2 expressed as C-terminal His-Avi-tagged, biotinylated protein in a baculovirus expression system (BPS Bioscience, Catalog #79498). The assay was conducted in black 384-well polystyrene plates in a final reaction volume of 20 μL. JAK2 JH2-V617F (0.26 nM) was incubated with compounds (100 nL serially diluted in DMSO) in the presence of 50 nM Fluorescent JAK2-JH2 Tracer (MedChem Express Catalog #HY-102055) and 0.25 nM Streptavidin-Tb cryptate (Cisbio Part #610SATLB) in assay buffer (50 mM Tris, pH=7.5, 10 mM MgCl2, 0.01% Brij-35, 0.1% BSA, 1 mM EGTA, 5% Glycerol and 5 mM DTT). Non-specific binding was accessed in the presence of 2 mM ATP. After incubation for 1 hour at 25° C., LanthaScreen signals were read on a PHERAstar FS plate reader (BMG LABTECH). Data was analyzed with IDBS Xlfit and GraphPad Prism 5.0 software using a four parameter dose response curve to determine IC50 for each compound.

Assay [4] deals with T4, pseudo-kinase domain (JH2, amino-acids 536-812) of human Wild Type JAK2 (Homo sapiens, UniProt O60674, F794H/W659A/W777A).
T4 construct: JH2, amino-acids 536-812 with 3 surface mutations W659A, W777A, F794H; His (C); purchased BPS Bioscience 79463; host or cells: baculovirus expression system
In words: JAK2 LanthaScreen JH2-WT Binding Assay. The conditions noted are these: 50 nM Fluorescent JAK2-JH2 Tracer, 1 hour at 25° C.; read-out: JH2 BIND WT (EX. B). On the procedure:
Example B. JAK2 LanthaScreen JH2-WT Binding Assay
as §1, with “JH2-WT” for “JH2-V617F”, “Wild Type” for “V617F mutant”, “#79463).” for “#79498).”, “JH2-WT (0.145” for “JH2-V617F (0.26”

T2 sequence (O60674 826-1132): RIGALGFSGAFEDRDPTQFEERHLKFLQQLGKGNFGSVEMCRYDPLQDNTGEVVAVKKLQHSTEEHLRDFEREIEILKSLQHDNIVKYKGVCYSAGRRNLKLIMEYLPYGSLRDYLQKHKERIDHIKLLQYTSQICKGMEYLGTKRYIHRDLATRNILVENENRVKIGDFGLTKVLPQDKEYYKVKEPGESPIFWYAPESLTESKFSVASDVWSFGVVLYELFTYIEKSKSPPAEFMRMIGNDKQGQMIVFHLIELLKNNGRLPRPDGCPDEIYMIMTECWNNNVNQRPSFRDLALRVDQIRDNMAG
T3 sequence (O60674 536-812 V617F/W659A/W777A/F794H): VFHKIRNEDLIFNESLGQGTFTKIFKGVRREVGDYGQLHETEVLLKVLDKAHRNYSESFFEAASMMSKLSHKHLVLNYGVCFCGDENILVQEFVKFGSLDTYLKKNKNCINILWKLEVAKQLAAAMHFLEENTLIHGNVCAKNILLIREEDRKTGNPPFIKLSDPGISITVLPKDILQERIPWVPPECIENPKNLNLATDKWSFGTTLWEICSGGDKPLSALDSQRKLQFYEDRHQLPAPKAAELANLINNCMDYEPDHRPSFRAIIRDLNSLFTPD
T4 sequence (O60674 536-812 W659A/W777A/F794H): as the sequence (O60674 536-812 V617F/W659A/W777A/F794H) above, with F82V counted along it
T1 sequence (O60674 808-1132): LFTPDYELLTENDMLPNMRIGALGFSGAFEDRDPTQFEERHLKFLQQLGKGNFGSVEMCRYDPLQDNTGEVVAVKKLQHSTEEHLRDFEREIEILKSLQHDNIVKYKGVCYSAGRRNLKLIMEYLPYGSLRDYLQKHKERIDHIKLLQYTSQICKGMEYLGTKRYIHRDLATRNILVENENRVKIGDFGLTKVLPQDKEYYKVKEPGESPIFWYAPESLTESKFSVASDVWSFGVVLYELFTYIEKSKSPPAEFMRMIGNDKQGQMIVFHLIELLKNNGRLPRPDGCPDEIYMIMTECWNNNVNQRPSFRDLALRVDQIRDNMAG

As to `[2H]C([2H])([2H])n1c(=O)n([C@H]2C[C@H](NC(=O)OC3CC3)C2)c2cc(Nc3cc(C(C)(C)O)c4cccc(C(F)(F)F)c4n3)ncc21` [Example 16, Cyclopropyl ((trans)-3-(6-((4-(2-hydroxypropan-2-yl)-8-(trifluoromethyl)quinolin-2-yl)amino)-3-(methyl-d3)-2-oxo-2,3-dihydro-1H-imidazo[4,5-c]pyridin-1-yl)cyclobutyl)carbamate], the IC50 in assay [1] was 100 to 500 nM; in assay [2] it was 100 to 500 nM; in assay [3] it was ≤ 10 nM; in assay [4] it was ≤ 10 nM.

With `[2H]C([2H])([2H])n1c(=O)n([C@@H]2CC[C@@H](NC(=O)OC)C2)c2cc(Nc3cc(C(C)(C)OC)c4cccc(C(F)(F)F)c4n3)ncc21` [Example 17, Methyl ((1R,3R)-3-(6-((4-(2-methoxypropan-2-yl)-8-(trifluoromethyl)quinolin-2-yl)amino)-3-(methyl-d3)-2-oxo-2,3-dihydro-1H-imidazo[4,5-c]pyridin-1-yl)cyclopentyl)carbamate], the IC50 in assay [1] was > 1000 nM; in assay [2], > 1000 nM; in assay [3] it was ≤ 10 nM; in assay [4], ≤ 10 nM.

Take `[2H]C([2H])([2H])n1c(=O)n([C@@H]2CC[C@@H](NC(=O)OC)C2)c2cc(Nc3cc(CC#N)c4cccc(C(F)(F)F)c4n3)ncc21` [Example 18, Methyl ((1R,3R)-3-(6-((4-(cyanomethyl)-8-(trifluoromethyl)quinolin-2-yl)amino)-3-(methyl-d3)-2-oxo-2,3-dihydro-1H-imidazo[4,5-c]pyridin-1-yl)cyclopentyl)carbamate]: the IC50 in assay [1] is 500 to 1000 nM; in assay [2] it was 500 to 1000 nM; in assay [3] it was ≤ 10 nM; in assay [4], ≤ 10 nM.

In the case of `[2H]C([2H])([2H])n1c(=O)n([C@@H]2CC[C@@H](NC(=O)OC)C2)c2cc(Nc3cc(C(C)(C)C#N)c4cccc(C(F)(F)F)c4n3)ncc21` [Example 19, Methyl ((1R,3R)-3-(6-((4-(2-cyanopropan-2-yl)-8-(trifluoromethyl)quinolin-2-yl)amino)-3-(methyl-d3)-2-oxo-2,3-dihydro-1H-imidazo[4,5-c]pyridin-1-yl)cyclopentyl)carbamate], the IC50 in assay [1] was > 1000 nM; in assay [2] it was > 1000 nM; in assay [3] it was ≤ 10 nM; in assay [4], ≤ 10 nM.

In the case of `[2H]C([2H])([2H])n1c(=O)n([C@@H]2CC[C@@H](NC(=O)OC)C2)c2cc(Nc3cc(C(C)(C)O)c4cc(Cl)cc(C(F)(F)F)c4n3)ncc21` [Example 20, Methyl ((1R,3R)-3-(6-((6-chloro-4-(2-hydroxypropan-2-yl)-8-(trifluoromethyl)quinolin-2-yl)amino)-3-(methyl-d3)-2-oxo-2,3-dihydro-1H-imidazo[4,5-c]pyridin-1-yl)cyclopentyl)carbamate], the IC50 in assay [1] is > 1000 nM; in assay [2], > 1000 nM; in assay [3], ≤ 10 nM; in assay [4], ≤ 10 nM.

Consider `COC(=O)N[C@@H]1CC[C@@H](n2c(=O)n(C)c3cnc(Nc4cc(Cl)c5cccc(C(F)(F)F)c5n4)cc32)C1` [Example 21, Methyl ((1R,3R)-3-(6-((4-chloro-8-(trifluoromethyl)quinolin-2-yl)amino)-3-methyl-2-oxo-2,3-dihydro-1H-imidazo[4,5-c]pyridin-1-yl)cyclopentyl)carbamate], for which the IC50 is > 1000 nM in assay [1], > 1000 nM in assay [2], ≤ 10 nM in assay [3] and ≤ 10 nM in assay [4].

Regarding `[2H]C([2H])([2H])n1c(=O)n([C@@H]2CC[C@@H](NC(=O)OC)C2)c2cc(Nc3cc(NC(=O)COC)c4cccc(C(F)(F)F)c4n3)ncc21` [Example 22, Methyl ((1R,3R)-3-(6-((4-(2-methoxyacetamido)-8-(trifluoromethyl)quinolin-2-yl)amino)-3-(methyl-d3)-2-oxo-2,3-dihydro-1H-imidazo[4,5-c]pyridin-1-yl)cyclopentyl)carbamate], the IC50 in assay [1] was > 1000 nM; in assay [2], > 1000 nM; in assay [3], ≤ 10 nM; in assay [4], ≤ 10 nM.

Regarding `[2H]C([2H])([2H])n1c(=O)n([C@@H]2CC[C@@H](NC(=O)OC)C2)c2cc(Nc3cc(NS(C)(=O)=O)c4cccc(C(F)(F)F)c4n3)ncc21` [Example 23, Methyl ((1R,3R)-3-(3-(methyl-d3)-6-((4-(methylsulfonamido)-8-(trifluoromethyl)quinolin-2-yl)amino)-2-oxo-2,3-dihydro-1H-imidazo[4,5-c]pyridin-1-yl)cyclopentyl)carbamate], the IC50 in assay [1] was > 1000 nM; in assay [2], > 1000 nM; in assay [3], 10 to 100 nM; in assay [4] it was 10 to 100 nM.

For `COC(=O)N[C@@H]1CC[C@@H](n2c(=O)n(C)c3cnc(Nc4ccc5cccc(Br)c5n4)cc32)C1` [Example 24, Methyl ((1R,3R)-3-(6-((8-bromoquinolin-2-yl)amino)-3-methyl-2-oxo-2,3-dihydro-1H-imidazo[4,5-c]pyridin-1-yl)cyclopentyl)carbamate], the IC50 is > 1000 nM in assay [1], > 1000 nM in assay [2], ≤ 10 nM in assay [3] and ≤ 10 nM in assay [4].

The values are drawn from US20250304582A1, “Bicyclic Ureas As Kinase Inhibitors” (Incyte Corporation, priority 2024, published 2025).
